Results: patent US9636327B2 (University Health Network, Toronto General Hospital, priority 2013, dated 2017)

What was measured:
[1] = more water-soluble than dantrolene; cited from earlier work
isolated rabbit hearts = assay: Ex-vivo rabbit model: Langendorff-perfused isolated hearts, VF induction and optical mapping of calcium alternans; parameters: species or system New-Zealand white rabbits
Procedure: New-Zealand white rabbits with weight ranging from 2.4-4.5 Kg were used. (n=14). All animals were anesthetized with sodium pentobarbital (35 mg/kg), aorta was attached to the Langendorff apparatus and retrogradely perfused with 37.5° C. oxygenated Tyrode solution with albumin 80 mg/L in deionized water equilibrated with 95% 02 and 5% CO2. Simultaneous optical mapping of epicardial surface of isolated hearts for Calcium and Voltage was performed using 0.5 mg Rhod2-AM and 10 microM/1 RH237. Blebbistatin at 10 microM/L was added to Tyrode solution to block cardiac contractions.
VF was induced by burst pacing for 30 sec at 60 Hz and 10V and hearts were continuously perfused during VF. […] VF was monitored for 4 min and then defibrillated at 5 J. Five minutes after termination of first VF episode, 4 more episodes of fibrillation-defibrillation were tried on each heart with 5 min recovery time (in sinus rhythm) in between. VF duration for each VF episode was 4 min (or shorter in case of self-termination) followed by defibrillation. […] Additionally, hearts were paced at various rates of 250, 220, 200, 180 and 160 msec Cycle Length (CL) for 30 seconds after first and second VF episodes. Simultaneous optical mapping of Calcium and voltage was performed during pacing to evaluate for Calcium Alternans. Calcium alternans was defined as beat-to-beat difference of more than 10% in Calcium wave amplitude. At the end of the experiment, LV tissue from the LV free wall was removed and frozen in liquid Nitrogen for further western blot analysis.
P<0.05 was considered statistically significant.

Yorkshire pigs = assay: In-vivo swine model of VF cardiac arrest with CPR and defibrillation;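 further: VF induced by burst pacing in anesthetized pigs, left untreated 4 min, then 3 min CPR and defibrillation, with ECG and aortic pressure monitored for 30 min afterwards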
Excerpt: Previously healthy 10-12 weeks-old Yorkshire pigs (n=24) were used. […] Following endotracheal intubation anesthesia was maintained by continuous administration of Isoflurane (2% mixed with 100% O2) and ventilated (Ohio ventilator R.A.E. Technologies, Inc. Ontario) at 21 breaths/min and was continuously measured using CO2MO Plus monitoring system (Novametrix Medical Systems). Animals were continuously monitored using Lifepak 12 Medtronic-PhysioControl defibrillator for ECG monitoring. Two self-adhesive defibrillation pads were attached to the lateral aspects of the chest wall for defibrillation. (Medtronics Inc, Redmond, Wash.)
Femoral arteries and veins were catheterized and an EP catheter (EP Technologies Inc, Sunnyvale, Calif.) was placed in the right ventricle to enable pacing and to induce VF. Two micro manometer-tipped Millar catheters (Millar Instruments, Inc, Houston, Tex.) were placed in Abdominal Aorta and right atrium. Pacing catheter was further attached to a custom designed signal acquisition and processing system. (Electrophysiological Recording system-Acqui2, Toronto, ON) The pressure and ECG signals were recorded at 1000 Hz with a 0.05 Hz high pass and 500 Hz low pass filter by custom software. (Acqui2, Cartesian Labs)
After initial monitoring and stabilization, VF was induced by burst pacing (10V of 60 Hz current for 2 seconds) and left untreated for 4 minutes. Then, chest compression was started using a pneumatic device (Lucas, Jolife AB, Lund, Sweden) at 100 compressions/min and manual ventilation at 6 breath/min using 5-6 liters/min of 100% O2 with an AMBU bag was performed. CPR was continued for 3 minutes with no interruption of chest compressions. […] After successful defibrillation, animals were monitored for 30 min to assess the outcome and occurrence of Refibrillations. At the end, survivors were sacrificed by inducing VF. If animals could not be defibrillated during refibrillation, the energy level was increased in a stepwise fashion to up to 4 attempts at 360 J.
Refibrillation was defined as recurrence of VF after at least 5 beats of a non-VF rhythm following defibrillation. Survival was determined based on presence of sBP≧30 mmHg in abdominal aorta and normal sinus rhythm at the end of 30 min observation period. Time to Return of Spontaneous Circulation (ROSC) was calculated from the onset of CPR until sBP≧60 mmHg was attained in abdominal aorta after successful defibrillation. Sustained ROSC was defined as maintenance of sBP≧60 mmHg by the end of 30-min observation post-defibrillation. Ventricular ERP was measured at baseline and at 20 minutes into recovery (if any) via the S1-S2 stimulation method. Surface ECG signals at 4 min of VF and at 7 min of VF were extracted to analyze for VF organization. A Spatio-temporal index of VF organization (Regularity Index (RI)) was used. RI was defined as the ratio of the power at the Dominant Frequency (DF) to the total power. […] The total power was calculated as the sums over the range of 5-15 Hz. Values vary between 0 (disorganized) to 1 (highly organized).
Mean time to ROSC, mean time to successful defibrillation, onset of refibrillation and regularity index of VF at different time points were analyzed using unpaired student t-test. Repeated-measures ANOVA was used to compare continuous variables between groups at different time points. Protein phosphorylation analysis and comparison of ordinal variables (number of refibrillations) were performed using Wilcoxon Mann-Whitney test. […] P<0.05 was considered statistically significant. All statistical analysis were performed using Stata 11.1 (Stata Corp LP)

[2] = 2 mg/kg bolus, defibrillation energy
[3] = 2 mg/kg bolus, post-defibrillation

Compound: O=C1CN(/N=C/c2ncc(-c3ccc(Br)cc3)o2)C(=O)N1 [Azumolene]
- water solubility relative to dantrolene [1]: 30 times

Compound: O=C1CN(N=Cc2ccc(-c3ccc([N+](=O)[O-])cc3)o2)C(=O)N1.[Na] [Dantrolene, 1-[[[5-(4-nitrophenyl)-2-furanyl]methylene]amino]-2,4-imidazolidinedione sodium salt]
- Incidence of CaA-ALT after second VF (isolated rabbit hearts; Dantrolene 10-20 μM/l): approximately 12.5%
- mean duration of all VF episodes combined (isolated rabbit hearts; Dantrolene 10-20 μM/l): about 194±234 sec
- successful attempts to induce VF (VF lasting ≧10 sec) (isolated rabbit hearts; Dantrolene 10-20 μM/l infused at 1 min of first VF, 12 of 31 attempts): 38.7%
- VF episodes sustained >60 sec (isolated rabbit hearts; Dantrolene 10-20 μM/l, 7 of 31 attempts): 22.58%
- alternans threshold (isolated rabbit hearts; Dantrolene 10-20 μM/l, pacing cycle length): about 186±11 msec CL
- Number of Refibrillations (Yorkshire pigs; 2 mg/kg bolus): 0.6 ± 0.4
- Number of shocks to terminate refibrillations (Yorkshire pigs; 2 mg/kg bolus): 1 ± 0
- Sinus rhythm immediately post-defibrillation (Yorkshire pigs; 2 mg/kg bolus): approximately 90.91%
- Survival after Refibrillation (Yorkshire pigs; 2 mg/kg bolus): 100% (3)
- Time to ROSC calculated from immediately post-defibrillation (Yorkshire pigs; 2 mg/kg bolus): about 13±4 sec
- Time to onset of Refibrillation (Yorkshire pigs; 2 mg/kg bolus): 51 ± 9 s
- animals requiring energy levels ≦200J for defibrillating the initial VF (Yorkshire pigs; 2 mg/kg bolus): Ninety
- sBP peak at 5 min post-defibrillation (Yorkshire pigs; 2 mg/kg bolus): approximately 98±17 mmHg
- Final Rhythm PEA (Yorkshire pigs; 2 mg/kg bolus at onset of CPR): 0%
- Final Rhythm Sinus (Yorkshire pigs; 2 mg/kg bolus at onset of CPR): 90.91%
- Final Rhythm VF (or VrF) (Yorkshire pigs; 2 mg/kg bolus at onset of CPR): 9.09%
- ROSC (at 5 min post-defibrillation) (Yorkshire pigs; 2 mg/kg bolus at onset of CPR): 90.91%
- post-defibrillation VERP (Yorkshire pigs; 2 mg/kg bolus, 20 minutes into recovery): about 215±9 msec
- Refibrillation Incidence (Yorkshire pigs; 2 mg/kg bolus, 30 min monitoring after defibrillation): 36.36%
- Maximum energy level (Yorkshire pigs; [2]): 187 ± 62 J
- Total energy level (Yorkshire pigs; [2]): 366 ± 139
- Total time in VF Including VrF (refibrillation) (Yorkshire pigs; 2 mg/kg bolus, initial VF plus all refibrillations): 478 ± 19 s
- Total time in VF Excluding VrF (Yorkshire pigs; 2 mg/kg bolus, initial VF without refibrillations): 466 ± 18 s
- QT interval post-defibrillation (Yorkshire pigs; [3]): about 334±83 msec
- Tp-Tn (repolarization dispersion) post-defibrillation (Yorkshire pigs; [3]): about 84±22 msec
- Number of shocks (>2 attempts) (Yorkshire pigs; 2 mg/kg bolus, share of animals needing >2 attempts): 9.09%
- Refibrillation duration (Yorkshire pigs; 2 mg/kg bolus, sodium salt, 2 mg/kg): 32 ± 6 s
- mean dBP at the end of experiment (Yorkshire pigs; 2 mg/kg bolus, survivors): about 61±10 mmHg
- mean sBP at the end of experiment (Yorkshire pigs; 2 mg/kg bolus, survivors): about 84±11 mmHg
- Successful defibrillation (Yorkshire pigs; Dantrolene Sodium 2 mg/kg bolus at onset of CPR after 4 min untreated VF): 100%
- QT interval at baseline (Yorkshire pigs; Dantrolene group, baseline): about 432±48 msec
- Tp-Tn (repolarization dispersion) at baseline (Yorkshire pigs; Dantrolene group, baseline): about 68±23 msec
